Data on 63 molecules can be found in PubChem BioAssay AID1645868 (Buhrlage Lab, Dana-Farber Cancer Institute and Novartis …, 2021).

The structures appear in SMILES notation. Active and inactive are the calls of the source.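 The calls were made as follows: active = maximal percent inhibition of the deubiquitinase OTUD3 of at least 30% across the tested doses; inactive = the rest.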 Where only a bound is given, the exact number is not on record here.

The target of this assay is OTU domain-containing protein 3 (Homo sapiens) (UniProt Q5T2D3). The experiment in a line: Validation of screening hits, potency titration, in vitro enzymatic, OTU domain-containing protein 3 DUB inhibitors (AID 1645868). Conditions: purified OTUD3, ubiquitin-rhodamine cleavage fluorescence, 2 h.
Sequence of OTU domain-containing protein 3 (Homo sapiens) (Q5T2D3 whole entry, looked up, the tested form may be a part): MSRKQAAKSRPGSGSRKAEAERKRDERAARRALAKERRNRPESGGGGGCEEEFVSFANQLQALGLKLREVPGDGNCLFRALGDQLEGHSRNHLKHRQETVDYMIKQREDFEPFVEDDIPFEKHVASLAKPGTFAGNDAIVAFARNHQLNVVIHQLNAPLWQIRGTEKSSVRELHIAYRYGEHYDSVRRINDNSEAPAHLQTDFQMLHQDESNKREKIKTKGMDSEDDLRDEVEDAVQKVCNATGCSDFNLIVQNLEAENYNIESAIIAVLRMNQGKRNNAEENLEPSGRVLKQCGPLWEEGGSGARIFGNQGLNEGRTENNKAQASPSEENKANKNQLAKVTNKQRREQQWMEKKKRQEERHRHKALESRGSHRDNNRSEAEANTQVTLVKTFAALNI
Take `COc1ccc(OC)c(NC(=O)CNC(=O)c2cc3c(OC)cccc3[nH]2)c1`: the IC50 (usually the concentration that gives 50% inhibition) was > 50 µM (inactive).
For the molecule `O=C(O)c1ccc(C2Cc3c([nH]c(=O)[nH]c3=O)O2)cc1` (stereo not drawn), the IC50 was 26.5 µM.
Regarding `COc1ccc(OC)c(-c2cc(C(=O)Nc3c(C)nn(Cc4ccccc4)c3C)no2)c1`, the IC50 is > 50 µM (inactive).
On to `COc1ccc(CC(=O)NCc2ccc3[nH]c(C)cc3c2)cc1`, for which the IC50 is > 50 µM (inactive).
With `CNC(=O)C1CN(C(=O)c2ccc(OC)cc2)CC12CCCC2` (stereo not drawn), the IC50 is > 50 µM (inactive).
For `O=C(c1ccnn1-c1ccc2ccc(-c3ccncc3)cn12)N1CCCC1` the value was > 50 µM (inactive); for `COc1cccc(-n2c(CNCc3cccnc3)nc3ccc([N+](=O)[O-])cc3c2=O)c1`, > 50 µM (inactive).
Regarding `O=c1c2ccccc2c(-c2nc(-c3ccncc3)no2)cn1-c1ccccc1`, the IC50 was > 5 µM (inactive).
As for `Cc1cc(=O)n(C)c2c(O)c3c(cc12)c(C)cc(=O)n3C`, the IC50 is > 50 µM (inactive).
The same measure for `N#Cc1cc(C(=O)c2ccc(Cl)cc2)c[nH]1`: > 50 µM (inactive); for `Cc1ccc(NC(=O)C2CCN(c3cncnc3N3CCCC3)CC2)cc1`: > 50 µM (inactive); for `O=C(COC(=O)C1CCCN1C(=O)C12CC3CC(CC(C3)C1)C2)c1ccc(Cl)cc1` (stereo not drawn): > 50 µM (inactive).
Regarding `CCOc1ccc(Nc2cc(C(=O)NCCc3ccccc3)c3ccccc3n2)cc1`, the IC50 was 35.4 µM.
The same measure for `Fc1ccccc1Cc1nc(-c2ccc3nncn3c2)no1`: > 50 µM (inactive); for `Cc1ccc(-c2csc(-n3ncc(C(=O)N4CCN(C(=O)Nc5cccc6ccccc56)C(C)C4)c3C(C)C)n2)cc1` (stereo not drawn): > 50 µM (inactive).
`Clc1cccc(N2CCN(c3ncnc4nc[nH]c34)CC2)c1`: the IC50 is > 50 µM (inactive).
As to `Cc1ccc(CNC(=O)Cn2c(=O)n(-c3ccccc3)c3ncccc32)cc1`, the IC50 is > 50 µM (inactive).
The same measure for `Cc1nn(Cc2ccccc2)c(C)c1C(=O)NC1CCCc2ccccc21` (stereo not drawn): > 50 µM (inactive).
As to `Cc1cc(/C=C2/C(=N)N3C(c4ccccc4)=CSC3=NC2=O)c(C)n1-c1ccc(F)cc1`, the IC50 is > 50 µM (inactive).
For the molecule `Cc1cc(CSc2ncccc2C(=O)Nc2ccnn2Cc2cccnc2)no1`, the IC50 is > 50 µM (inactive).
On to `c1ccc2c(c1)ccc1nnc(-c3ccc4c(c3)OCO4)n12`, for which the IC50 is > 50 µM (inactive).
Regarding `COc1cccc(NC(=O)C2Cc3ccccc3N2C(=O)c2ccccc2)c1` (stereo not drawn), the IC50 was 20.1 µM.
`COc1cccc2sc(N3CCN(c4nc5ccccc5s4)CC3)nc12`: the IC50 was > 50 µM (inactive).
On to `CCCc1nc2sc3c(NCCN4CCOCC4)ncnc3c2c2c1CCC2`, for which the IC50 was > 50 µM (inactive).
On to `COc1cc(NC(=O)COC(=O)Cn2cnc3ccccc32)cc(OC)c1`, for which the IC50 was > 50 µM (inactive).
The same measure for `COc1cnc(CSc2ncccn2)cc1OCC(=O)Nc1cc(C)ccc1C`: > 50 µM (inactive); for `CC1CCCN1C(=O)c1ccn(-c2ccc3ccc(-c4cccnc4)cn23)n1` (stereo not drawn): > 50 µM (inactive).
For `CCOC(=O)C1CCN(C(=O)c2ccc3c(c2)NC(=O)C2CCCN32)CC1` (stereo not drawn) the value was > 50 µM (inactive); for `O=C(Nc1cccc(F)c1)c1ncoc1-c1ccco1`, > 50 µM (inactive); for `COc1ccc(-c2ccnc(-c3ccc(OCc4cccc(F)c4)cc3)n2)cc1`, 45.8 µM.
For the molecule `O=C(Cn1nnc(-c2ccc(F)cc2)n1)NCCc1ccccc1`, the IC50 was > 50 µM (inactive).
For the molecule `COc1cc(C)cc2c1C(=O)c1c(cc(O)c(Cl)c1O)C2=O`, the IC50 is 2.08 µM.
For `Cc1nn(-c2nc3ccccc3[nH]2)c2c1C(c1cccs1)CC(=O)N2` (stereo not drawn), the IC50 was > 50 µM (inactive).
The same measure for `O=S(=O)(c1ccc(F)cc1)N1CCCC1c1ccnc(Nc2cnccn2)n1` (stereo not drawn): > 50 µM (inactive).
In the case of `CC(C)(C)C(=O)NC(c1ccccc1)c1nnc(N2CCOCC2)o1` (stereo not drawn), the IC50 was > 50 µM (inactive).
For `COc1ccc(CCn2cnc3c4ccccc4n(C)c3c2=O)cc1OC` the value was > 50 µM (inactive); for `COc1cccc(-c2nc(C(N)=O)c3[nH]c(=O)n(-c4cccc(Cl)c4)c3n2)c1OC`, > 50 µM (inactive).
Take `COc1ccc(C(=O)Nc2cc3c4c(c2)C(C)C(=O)N4CCC3)cc1` (stereo not drawn): the IC50 is > 50 µM (inactive).
`Cc1cnnn1-c1ccc(C(=O)Nc2ccc(Cl)cc2)cc1`: the IC50 is > 50 µM (inactive).
As to `Cc1cnc2nc3c(cc2c1)CN(CCc1ccc(Cl)cc1)CC3`, the IC50 was > 50 µM (inactive).
As for `CCc1nc2c(NC(=O)Nc3cccc(C(=O)OC)c3)cccn2n1`, the IC50 was > 50 µM (inactive).
For `COC(=O)c1ccc2c(=O)n(CCCCCC(=O)NCCc3ccc(S(N)(=O)=O)cc3)c(=O)[nH]c2c1` the value was 12.5 µM; for `CCN1C(=O)COc2ccc(NC(=O)c3ccc(OCc4nonc4C)cc3)cc21`, > 50 µM (inactive).
On to `COc1ccccc1CNC(=O)c1c(O)c2cnn(-c3cccc(C)c3)c2[nH]c1=O`, for which the IC50 was > 50 µM (inactive).
For `CC1=C(Cn2c3cccc(=O)c-3nc3ccccc32)CCC(C)(C)C1`, the IC50 is 3.73 µM.
Take `N#Cc1ccc(Cn2nnc(-c3cccc(Cl)c3)n2)cc1`: the IC50 was > 50 µM (inactive).
For the molecule `CCOC(=O)c1cnc(C(F)(F)F)nc1Sc1n[nH]c(-c2cccs2)n1`, the IC50 was > 50 µM (inactive).
The same measure for `Cc1ccc(-n2c(=O)[nH]c3c(C(N)=O)nc(-c4cccnc4)nc32)cc1`: 30.8 µM; for `O=C(COc1ccccc1-c1nnc(-c2ccccc2)o1)Nc1ccc(F)cc1F`: 39.4 µM; for `O=C(COc1cccc2c1CCN(Cc1cccnc1)C2=O)Nc1ccc2c(c1)OCCO2`: > 50 µM (inactive).
Take `CCOc1ccc(NC(=O)COc2cccc(-n3cnnn3)c2)cc1`: the IC50 was > 50 µM (inactive).
Consider `Cc1nn(-c2cc(N3CCOCC3)ncn2)c(C)c1CCC(=O)Nc1ccc(C(C)C)cc1`, for which the IC50 is 33.3 µM.
The same measure for `O=C(NCc1ccc2c(c1)OCO2)c1nc(-c2ccccc2)n(-c2ccccc2)n1`: > 50 µM (inactive); for `O=C(Cn1nc2c3c4c(sc3ncn2c1=O)CCCCC4)Nc1ccc(Cl)cc1F`: 17.6 µM; for `Cc1nc(N2CCCC2)ncc1-c1cc(=O)[nH]c(N2CCc3ccccc3C2)n1`: 29.3 µM.
Turning to `Cc1ccc2nc(N3CCc4ccccc4C3)c3nncn3c2c1`, the IC50 is > 50 µM (inactive).
For `COc1ccc(CCNc2c(-c3ccccc3O)nc3cnccn23)cc1OC` the value was > 50 µM (inactive); for `CCCNC(=O)c1ccn(-c2ccc3ccc(-c4cnn(C)c4)cn23)n1`, > 50 µM (inactive).
For the molecule `COc1ccc(-n2nnc3c(SCC(=O)Nc4cc(C)on4)ncnc32)cc1`, the IC50 was > 50 µM (inactive).
`O=C(CCn1c(=O)c2sccc2n(CC(=O)OCc2ccccc2)c1=O)NCc1ccc2c(c1)OCO2`: the IC50 is 20.7 µM.
On to `CCC(C)(C)C1CCC2(CC1)N=C(N)Nc1nc3ccccc3n12` (stereo not drawn), for which the IC50 is > 50 µM (inactive).
For `COc1ccc(OC)c(NC(=O)CSc2nc(C)nc3c2oc2ccccc23)c1` the value was > 50 µM (inactive); for `Cc1ccc(NC(=O)c2ccn(COc3ccc(F)cc3)n2)nc1`, > 50 µM (inactive).
